From ChEMBL document CHEMBL3091452, “A prodrug approach toward cancer-related carbonic anhydrase inhibition” (J Med Chem, 2013)

Columns and labels:
Carbonic anhydrase 9 = Carbonic anhydrase 9 (Homo sapiens, UniProt Q16790)
Description: Inhibition of human carbonic anhydrase 9 by stopped-flow CO2 hydration assay

Carbonic anhydrase 12 = Carbonic anhydrase 12 (Homo sapiens, UniProt O43570)
Description: Inhibition of human carbonic anhydrase 12 by stopped-flow CO2 hydration assay

Albumin = Albumin (Homo sapiens, UniProt P02768); assay: Binding affinity to human serum albumin by chromatographic analysis; type: ADME; settings: isolated protein
[1] = Degradation half life in human plasma at 5000 ng/mL by UPLC-MS analysis; type: ADME, cell-free
Carbonic anhydrase 14 = Carbonic anhydrase 14 (Homo sapiens, UniProt Q9ULX7); assay: Inhibition of human carbonic anhydrase 14 by stopped-flow CO2 hydration assay
[2] = Permeability of the compound in human Caco2 cells assessed as mass balance in diffusion chamber at 15 uM after 90 mins; type: ADME, cell-based; settings: Caco-2, read-out: permeability
[3] = Permeability of the compound in human Caco2 cells assessed as mass balance in diffusion chamber at 20 uM after 90 mins; type: ADME, cell-based; settings: Caco-2, read-out: permeability
[4] = Intrinsic clearance in human liver microsomes at 1 uM after 2 to 60 mins by LCMS analysis in absence of NADPH; type: ADME; settings: read-out: CLH
[5] = Intrinsic clearance in human liver microsomes at 1 uM after 2 to 60 mins by LCMS analysis in presence of NADPH; type: ADME; settings: read-out: CLH
Carbonic anhydrase 2 = Carbonic anhydrase 2 (Homo sapiens, UniProt P00918)
Description: Inhibition of human carbonic anhydrase 2 by stopped-flow CO2 hydration assay

Carbonic anhydrase 1 = Carbonic anhydrase 1 (Homo sapiens, UniProt P00915)
Description: Inhibition of human carbonic anhydrase 1 by stopped-flow CO2 hydration assay

[6] = Solubility of the compound in HEPES buffer at pH 7.4; type: physicochemical
[7] = Permeability of the compound in human Caco2 cells assessed as mass balance in diffusion chamber at 8 uM after 90 mins; type: ADME, cell-based; settings: Caco-2, read-out: permeability

Chain of Carbonic anhydrase 1 (P00915 whole entry): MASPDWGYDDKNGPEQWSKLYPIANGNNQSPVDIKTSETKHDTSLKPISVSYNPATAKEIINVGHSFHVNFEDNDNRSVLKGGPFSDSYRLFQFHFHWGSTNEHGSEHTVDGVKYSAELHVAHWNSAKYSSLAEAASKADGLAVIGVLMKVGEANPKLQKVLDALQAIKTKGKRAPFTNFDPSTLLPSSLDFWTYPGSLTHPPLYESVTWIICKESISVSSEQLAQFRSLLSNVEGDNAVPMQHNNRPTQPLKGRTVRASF
Chain of Albumin (P02768 whole entry): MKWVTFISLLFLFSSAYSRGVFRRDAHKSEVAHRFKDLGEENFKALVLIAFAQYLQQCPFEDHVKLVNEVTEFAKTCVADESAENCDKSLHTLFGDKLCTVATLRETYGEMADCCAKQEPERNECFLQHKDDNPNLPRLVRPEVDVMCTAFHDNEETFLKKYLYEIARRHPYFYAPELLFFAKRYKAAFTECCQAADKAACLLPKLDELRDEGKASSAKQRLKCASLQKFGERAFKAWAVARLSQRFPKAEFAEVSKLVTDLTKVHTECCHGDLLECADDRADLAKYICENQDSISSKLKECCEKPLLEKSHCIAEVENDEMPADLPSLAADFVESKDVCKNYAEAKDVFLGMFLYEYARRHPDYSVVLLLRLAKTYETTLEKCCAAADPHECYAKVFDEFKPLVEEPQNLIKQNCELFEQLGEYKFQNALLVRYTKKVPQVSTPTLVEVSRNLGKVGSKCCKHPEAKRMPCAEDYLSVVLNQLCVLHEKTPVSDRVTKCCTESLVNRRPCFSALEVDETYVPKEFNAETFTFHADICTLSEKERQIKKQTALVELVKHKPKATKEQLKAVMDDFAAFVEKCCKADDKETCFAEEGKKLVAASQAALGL
Chain of Carbonic anhydrase 12 (O43570 whole entry): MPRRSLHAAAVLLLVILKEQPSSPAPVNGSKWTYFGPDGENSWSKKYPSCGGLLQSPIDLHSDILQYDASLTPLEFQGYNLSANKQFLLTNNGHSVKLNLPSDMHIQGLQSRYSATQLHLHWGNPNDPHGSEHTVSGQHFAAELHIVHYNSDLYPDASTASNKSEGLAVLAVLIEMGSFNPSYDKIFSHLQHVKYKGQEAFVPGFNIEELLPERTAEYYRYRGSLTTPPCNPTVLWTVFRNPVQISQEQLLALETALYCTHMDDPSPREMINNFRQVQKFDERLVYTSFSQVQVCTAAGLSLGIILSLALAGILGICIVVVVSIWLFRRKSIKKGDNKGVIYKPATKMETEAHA
Chain of Carbonic anhydrase 14 (Q9ULX7 whole entry, the tested form may be a part): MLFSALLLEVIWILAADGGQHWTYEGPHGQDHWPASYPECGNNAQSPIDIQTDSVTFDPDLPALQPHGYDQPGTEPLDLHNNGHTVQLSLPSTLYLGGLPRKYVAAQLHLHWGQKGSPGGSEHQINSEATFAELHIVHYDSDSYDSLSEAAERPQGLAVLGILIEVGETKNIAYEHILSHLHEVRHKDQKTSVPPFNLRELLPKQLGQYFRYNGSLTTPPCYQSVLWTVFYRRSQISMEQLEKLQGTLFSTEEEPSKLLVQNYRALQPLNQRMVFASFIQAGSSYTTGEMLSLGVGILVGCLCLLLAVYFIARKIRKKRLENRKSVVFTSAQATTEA

SMILES | Ki (Carbonic anhydrase 9) | Ki (Carbonic anhydrase 12) | Ki (Carbonic anhydrase 14) | Ki (Carbonic anhydrase 2) | Ki (Carbonic anhydrase 1) | also measured
C#Cc1cccc(S(N)(=O)=O)c1 | 0.0657 µM | – | – | – | – | –
CC(=O)OC[C@H]1O[C@@H](n2cc(-c3ccc(S(N)(=O)=O)cc3)nn2)[C@H](OC(C)=O)[C@@H](OC(C)=O)[C@@H]1OC(C)=O | – | 0.0671 µM | 0.104 µM | – | – | Activity (Albumin): 30%; half-life at 5000 ng/mL [1]: 7 min; recovery at 1.5 h, 15 µM [2]: 81%
NS(=O)(=O)c1ccc(-c2cn([C@@H]3O[C@H](CO)[C@@H](O)[C@H](O)[C@H]3O)nn2)cc1 | – | 0.0401 µM | 0.0503 µM | – | – | recovery at 1.5 h, 20 µM [3]: 100%; microsomal CLint at 1 µM [4]: < 7 µL/min/mg; microsomal CLint at 1 µM [5]: < 7 µL/min/mg; Activity (Albumin): 13%; half-life at 5000 ng/mL [1]: > 250 min
NS(=O)(=O)c1ccc(-c2cn([C@@H]3O[C@H](CO)[C@H](O)[C@H](O)[C@H]3O)nn2)cc1 | 0.126 µM | 0.0363 µM | 0.0201 µM | 0.0067 µM | 7.95 µM | –
C#Cc1ccc(S(N)(=O)=O)cc1 | 0.054 µM | – | – | – | – | –
CC(C)CC(=O)OC[C@H]1O[C@@H](n2cc(-c3cccc(S(N)(=O)=O)c3)nn2)[C@H](OC(=O)CC(C)C)[C@@H](OC(=O)CC(C)C)[C@H]1OC(=O)CC(C)C | 0.254 µM | – | – | – | – | –
CCCCC(=O)OC[C@H]1O[C@@H](n2cc(-c3cccc(S(N)(=O)=O)c3)nn2)[C@H](OC(=O)CCCC)[C@@H](OC(=O)CCCC)[C@H]1OC(=O)CCCC | 0.8 µM | – | – | – | – | –
CCCC(=O)OC[C@H]1O[C@@H](n2cc(-c3cccc(S(N)(=O)=O)c3)nn2)[C@H](OC(=O)CCC)[C@@H](OC(=O)CCC)[C@H]1OC(=O)CCC | 0.0692 µM | – | – | – | – | –
CCC(=O)OC[C@H]1O[C@@H](n2cc(-c3cccc(S(N)(=O)=O)c3)nn2)[C@H](OC(=O)CC)[C@@H](OC(=O)CC)[C@H]1OC(=O)CC | 0.126 µM | – | – | – | – | –
CC(=O)OC[C@H]1O[C@@H](n2cc(-c3cccc(S(N)(=O)=O)c3)nn2)[C@H](OC(C)=O)[C@@H](OC(C)=O)[C@H]1OC(C)=O | 0.943 µM | – | – | – | – | –
NS(=O)(=O)c1cccc(-c2cn([C@@H]3O[C@H](CO)[C@H](O)[C@H](O)[C@H]3O)nn2)c1 | 0.59 µM | – | – | – | – | –
CC(C)CC(=O)OC[C@H]1O[C@@H](n2cc(-c3ccc(S(N)(=O)=O)cc3)nn2)[C@H](OC(=O)CC(C)C)[C@@H](OC(=O)CC(C)C)[C@H]1OC(=O)CC(C)C | 0.374 µM | 0.0233 µM | 0.0159 µM | 0.0379 µM | 3.21 µM | –
CCCCC(=O)OC[C@H]1O[C@@H](n2cc(-c3ccc(S(N)(=O)=O)cc3)nn2)[C@H](OC(=O)CCCC)[C@@H](OC(=O)CCCC)[C@H]1OC(=O)CCCC | – | 0.031 µM | 0.0673 µM | 0.0736 µM | 2.13 µM | –
CCCC(=O)OC[C@H]1O[C@@H](n2cc(-c3ccc(S(N)(=O)=O)cc3)nn2)[C@H](OC(=O)CCC)[C@@H](OC(=O)CCC)[C@H]1OC(=O)CCC | – | 0.0095 µM | 0.0356 µM | 0.0069 µM | 0.257 µM | –
CCC(=O)OC[C@H]1O[C@@H](n2cc(-c3ccc(S(N)(=O)=O)cc3)nn2)[C@H](OC(=O)CC)[C@@H](OC(=O)CC)[C@H]1OC(=O)CC | 0.0051 µM | 0.0054 µM | 0.0109 µM | 0.0081 µM | 0.0788 µM | –
CC(C)CC(=O)OC[C@H]1O[C@@H](n2cc(-c3cccc(S(N)(=O)=O)c3)nn2)[C@H](OC(=O)CC(C)C)[C@@H](OC(=O)CC(C)C)[C@@H]1OC(=O)CC(C)C | 0.724 µM | – | – | – | – | –
CCCCC(=O)OC[C@H]1O[C@@H](n2cc(-c3cccc(S(N)(=O)=O)c3)nn2)[C@H](OC(=O)CCCC)[C@@H](OC(=O)CCCC)[C@@H]1OC(=O)CCCC | 0.402 µM | – | – | – | – | –
CCCC(=O)OC[C@H]1O[C@@H](n2cc(-c3cccc(S(N)(=O)=O)c3)nn2)[C@H](OC(=O)CCC)[C@@H](OC(=O)CCC)[C@@H]1OC(=O)CCC | 0.583 µM | – | – | – | – | –
CC(=O)OC[C@H]1O[C@@H](n2cc(-c3cccc(S(N)(=O)=O)c3)nn2)[C@H](OC(C)=O)[C@@H](OC(C)=O)[C@@H]1OC(C)=O | 0.48 µM | – | – | – | – | –
CCC(=O)OC[C@H]1O[C@@H](n2cc(-c3cccc(S(N)(=O)=O)c3)nn2)[C@H](OC(=O)CC)[C@@H](OC(=O)CC)[C@@H]1OC(=O)CC | 0.874 µM | – | – | – | – | –
CC(C)CC(=O)OC[C@H]1O[C@@H](n2cc(-c3ccc(S(N)(=O)=O)cc3)nn2)[C@H](OC(=O)CC(C)C)[C@@H](OC(=O)CC(C)C)[C@@H]1OC(=O)CC(C)C | 0.426 µM | 0.052 µM | 0.0401 µM | 0.44 µM | 9.44 µM | solubility [6]: Insoluble; microsomal CLint at 1 µM [4]: < 7 µL/min/mg; microsomal CLint at 1 µM [5]: < 7 µL/min/mg; Activity (Albumin): > 99%; half-life at 5000 ng/mL [1]: > 250 min
CCCCC(=O)OC[C@H]1O[C@@H](n2cc(-c3ccc(S(N)(=O)=O)cc3)nn2)[C@H](OC(=O)CCCC)[C@@H](OC(=O)CCCC)[C@@H]1OC(=O)CCCC | – | 0.0527 µM | 0.176 µM | 0.573 µM | 9.23 µM | solubility [6]: Insoluble; microsomal CLint at 1 µM [4]: < 7 µL/min/mg; microsomal CLint at 1 µM [5]: < 7 µL/min/mg; Activity (Albumin): > 99%; half-life at 5000 ng/mL [1]: > 250 min
CCCC(=O)OC[C@H]1O[C@@H](n2cc(-c3ccc(S(N)(=O)=O)cc3)nn2)[C@H](OC(=O)CCC)[C@@H](OC(=O)CCC)[C@@H]1OC(=O)CCC | 0.633 µM | 0.0502 µM | 0.119 µM | 0.0763 µM | 1.8 µM | solubility [6]: Insoluble; Activity (Albumin): 94%; half-life at 5000 ng/mL [1]: 25 min
CCC(=O)OC[C@H]1O[C@@H](n2cc(-c3ccc(S(N)(=O)=O)cc3)nn2)[C@H](OC(=O)CC)[C@@H](OC(=O)CC)[C@@H]1OC(=O)CC | 0.475 µM | 0.0074 µM | 0.256 µM | 0.0711 µM | 2.02 µM | recovery at 1.5 h, 8 µM [7]: 47%; Activity (Albumin): 77%; half-life at 5000 ng/mL [1]: 3 min
CC(=O)OC[C@H]1O[C@@H](n2cc(-c3ccc(S(N)(=O)=O)cc3)nn2)[C@H](OC(C)=O)[C@@H](OC(C)=O)[C@H]1OC(C)=O | – | 0.0097 µM | 0.0158 µM | – | – | –
